# In patent publication US10758534B2 (Vertex Pharmaceuticals Incorporated, priority 2014, dated 2020):
# Target: T1, F508del (Homo sapiens, UniProt P13569, DEL508-508)
# T1 construct: expressed in transfected cells
# Experiment: Protocol 2: FRET membrane potential optical assay (VIPR), identification of correction compounds
# Assay type: cell-based
# Conditions: F508del CFTR modulator activity; compounds of Table 1; read-out: EC30
# Procedure, shortened: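 Correction of the F508del trafficking defect is scored as forskolin (10 μM)/genistein (20 μM)-stimulated Cl^− efflux in NIH3T3 mouse fibroblasts after a 16 hr, 37° C. compound exposure. Depolarization was followed optically using voltage-sensing FRET dyes.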
# T1 sequence (P13569 with tags, fused parts or gaps DEL508-508): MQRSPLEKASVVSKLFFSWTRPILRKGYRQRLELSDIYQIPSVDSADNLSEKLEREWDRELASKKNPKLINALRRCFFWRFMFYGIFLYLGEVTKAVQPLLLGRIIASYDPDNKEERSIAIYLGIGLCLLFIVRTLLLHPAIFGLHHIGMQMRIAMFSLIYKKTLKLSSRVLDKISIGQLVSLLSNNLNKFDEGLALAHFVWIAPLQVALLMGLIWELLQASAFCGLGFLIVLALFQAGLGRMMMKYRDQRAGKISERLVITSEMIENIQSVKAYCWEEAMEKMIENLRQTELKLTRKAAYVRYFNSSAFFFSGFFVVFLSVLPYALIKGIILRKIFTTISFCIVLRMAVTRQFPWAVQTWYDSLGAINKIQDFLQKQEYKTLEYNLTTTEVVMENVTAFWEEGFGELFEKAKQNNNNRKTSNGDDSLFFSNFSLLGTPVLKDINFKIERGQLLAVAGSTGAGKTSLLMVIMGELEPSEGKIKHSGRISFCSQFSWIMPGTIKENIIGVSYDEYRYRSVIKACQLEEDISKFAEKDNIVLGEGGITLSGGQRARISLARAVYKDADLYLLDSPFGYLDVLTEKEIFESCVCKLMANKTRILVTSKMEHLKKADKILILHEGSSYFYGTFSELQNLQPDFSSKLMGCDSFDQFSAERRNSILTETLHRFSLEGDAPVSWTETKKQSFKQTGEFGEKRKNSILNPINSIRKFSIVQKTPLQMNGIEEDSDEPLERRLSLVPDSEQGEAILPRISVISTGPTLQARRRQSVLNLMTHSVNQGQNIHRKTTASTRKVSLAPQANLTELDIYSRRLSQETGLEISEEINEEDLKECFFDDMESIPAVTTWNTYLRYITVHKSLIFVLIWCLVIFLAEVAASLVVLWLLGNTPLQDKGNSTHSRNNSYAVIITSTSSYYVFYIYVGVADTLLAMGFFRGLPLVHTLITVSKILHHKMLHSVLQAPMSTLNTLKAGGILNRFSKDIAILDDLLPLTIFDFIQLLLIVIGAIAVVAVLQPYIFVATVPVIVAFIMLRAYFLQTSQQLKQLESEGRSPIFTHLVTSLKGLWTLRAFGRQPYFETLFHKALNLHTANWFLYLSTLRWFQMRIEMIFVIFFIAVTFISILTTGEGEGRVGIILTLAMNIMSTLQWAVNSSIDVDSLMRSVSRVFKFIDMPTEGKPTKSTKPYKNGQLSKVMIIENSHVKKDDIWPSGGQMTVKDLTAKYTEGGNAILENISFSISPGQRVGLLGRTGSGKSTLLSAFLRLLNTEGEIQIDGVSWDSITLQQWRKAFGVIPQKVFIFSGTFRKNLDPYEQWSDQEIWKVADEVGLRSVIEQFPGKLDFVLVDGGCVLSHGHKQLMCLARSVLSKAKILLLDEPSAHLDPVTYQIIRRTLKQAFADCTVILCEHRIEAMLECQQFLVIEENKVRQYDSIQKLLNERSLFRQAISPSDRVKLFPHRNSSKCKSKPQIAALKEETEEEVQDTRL
row,SMILES,EC30
1,"Cc1ccc2cccc(Oc3cccc(S(=O)(=O)NC(=O)c4cccnc4N4CC(C)CC4(C)C)n3)c2n1 (stereo not shown) [Compound 2643, N—[[6-[(2-methyl-8-quinolyl)oxy]-2-pyridyl]sulfonyl]-2-(2,2,4-trimethylpyrrolidin-1-yl)pyridine-3-carboxamide]",< 3000 nM
2,"C[C@@H]1CN(c2nc(-c3ccc(C(F)F)cc3)ccc2C(=O)NS(=O)(=O)c2cccnc2N)C(C)(C)C1 [Compound 2644, N-[(2-amino-3-pyridyl)sulfonyl]-6-[4-(difluoromethyl)phenyl]-2-[(4S)-2,2,4-trimethylpyrrolidin-1-yl]pyridine-3-carboxamide]",< 3000 nM
3,"COc1ccc(Cl)cc1COc1cccc(S(=O)(=O)NC(=O)c2cccnc2N2CC(C)CC2(C)C)n1 (stereo not shown) [Compound 2645, N—[[6-[(5-chloro-2-methoxy-phenyl)methoxy]-2-pyridyl]sulfonyl]-2-(2,2,4-trimethylpyrrolidin-1-yl)pyridine-3-carboxamide]",< 3000 nM
4,"COc1cc(-c2ccc(C(=O)NS(=O)(=O)c3cccnc3N)c(N3C[C@@H](C)CC3(C)C)n2)ccn1 [Compound 2646, N-[(2-amino-3-pyridyl)sulfonyl]-6-(2-methoxy-4-pyridyl)-2-[(4S)-2,2,4-trimethylpyrrolidin-1-yl]pyridine-3-carboxamide]",< 3000 nM
5,"CC(C)CC/C=C/c1cnc(N2CC(C)CC2(C)C)c(C(=O)NS(=O)(=O)c2cccc(N)n2)c1 (stereo not shown) [Compound 2647, N-[(6-amino-2-pyridyl)sulfonyl]-5-[(E)-5-methylhex-1-enyl]-2-(2,2,4-trimethylpyrrolidin-1-yl)pyridine-3-carboxamide]",< 3000 nM
6,"CC(C)=CCOc1cccc(S(=O)(=O)NC(=O)c2cccnc2N2CC(C)CC2(C)C)n1 (stereo not shown) [Compound 2648, N—[[6-(3-methylbut-2-enoxy)-2-pyridyl]sulfonyl]-2-(2,2,4-trimethylpyrrolidin-1-yl)pyridine-3-carboxamide]",< 3000 nM
7,"CC1CN(c2ncc(-c3ccc(OC(F)(F)F)cc3)cc2C(=O)NS(=O)(=O)c2cccc(N)n2)C(C)(C)C1 (stereo not shown) [Compound 2649, N-[(6-amino-2-pyridyl)sulfonyl]-5-[4-(trifluoromethoxy)phenyl]-2-(2,2,4-trimethylpyrrolidin-1-yl)pyridine-3-carboxamide]",< 3000 nM
8,"C[C@@H]1CN(c2nc(C3=CCCN(C(=O)CC(C)(C)C)C3)ccc2C(=O)NS(=O)(=O)c2cccc(N)n2)C(C)(C)C1 [Compound 2650, N-[(6-amino-2-pyridyl)sulfonyl]-6-[1-(3,3-dimethylbutanoyl)-3,6-dihydro-2H-pyridin-5-yl]-2-[(4S)-2,2,4-trimethylpyrrolidin-1-yl]pyridine-3-carboxamide]",3000 to 10000 nM
9,"CCOc1ncc(-c2ccc(C(=O)NS(=O)(=O)c3cccnc3N)c(N3C[C@@H](C)CC3(C)C)n2)cc1C [Compound 2651, N-[(2-amino-3-pyridyl)sulfonyl]-6-(6-ethoxy-5-methyl-3-pyridyl)-2-[(4S)-2,2,4-trimethylpyrrolidin-1-yl]pyridine-3-carboxamide]",< 3000 nM
10,"C[C@@H]1CN(c2nc(-c3cc(F)cc(F)c3)ccc2C(=O)NS(=O)(=O)c2ccc[nH]c2=O)C(C)(C)C1 [Compound 2652, 6-(3,5-difluorophenyl)-N-[(2-oxo-1H-pyridin-3-yl)sulfonyl]-2-[(4S)-2,2,4-trimethylpyrrolidin-1-yl]pyridine-3-carboxamide]",< 3000 nM
11,"C[C@@H]1CN(c2nc(-c3ccc(F)cc3O)ccc2C(=O)NS(=O)(=O)c2cccnc2N)C(C)(C)C1 [Compound 2653, N-[(2-amino-3-pyridyl)sulfonyl]-6-(4-fluoro-2-hydroxy-phenyl)-2-[(4S)-2,2,4-trimethylpyrrolidin-1-yl]pyridine-3-carboxamide]",< 3000 nM
12,"CC1CN(c2ncccc2C(=O)NS(=O)(=O)c2cccc(Oc3c(F)cc(F)cc3F)n2)C(C)(C)C1 (stereo not shown) [Compound 2654, N—[[6-(2,4,6-trifluorophenoxy)-2-pyridyl]sulfonyl]-2-(2,2,4-trimethylpyrrolidin-1-yl)pyridine-3-carboxamide]",< 3000 nM
13,"CC(C)COc1cc(F)cc(-c2ccc(C(=O)NS(=O)(=O)C3CCCNC3)c(N3C[C@@H](C)CC3(C)C)n2)c1 (stereo partly drawn) [Compound 2655, 6-(3-fluoro-5-isobutoxy-phenyl)-N-(3-piperidylsulfonyl)-2-[(4S)-2,2,4-trimethylpyrrolidin-1-yl]pyridine-3-carboxamide]",< 3000 nM
14,"CC1CN(c2ncccc2C(=O)NS(=O)(=O)c2cccc(Nc3ccc(Cl)cn3)n2)C(C)(C)C1 (stereo not shown) [Compound 2656, N—[[6-[(5-chloro-2-pyridyl)amino]-2-pyridyl]sulfonyl]-2-(2,2,4-trimethylpyrrolidin-1-yl)pyridine-3-carboxamide]",< 3000 nM
15,"C[C@@H]1CN(c2nc(-c3cc4ccccc4n3C(=O)OC(C)(C)C)ccc2C(=O)NS(=O)(=O)c2cccnc2N)C(C)(C)C1 [Compound 2657, tert-butyl 2-[5-[(2-amino-3-pyridyl)sulfonylcarbamoyl]-6-[(4S)-2,2,4-trimethylpyrrolidin-1-yl]-2-pyridyl]indole-1-carboxylate]",3000 to 10000 nM

# Now from value to compound:
row,EC30,SMILES
1,3000 to 10000 nM,"CC(C)Oc1cnn(-c2ccc(C(=O)NS(=O)(=O)c3cccc(N)n3)c(N3C[C@@H](C)CC3(C)C)n2)c1 [Compound 2658, N-[(6-amino-2-pyridyl)sulfonyl]-6-(4-isopropoxypyrazol-1-yl)-2-[(4S)-2,2,4-trimethylpyrrolidin-1-yl]pyridine-3-carboxamide]"
2,3000 to 10000 nM,"CC1CN(c2ncccc2C(=O)NS(=O)(=O)c2cccc(Nc3ccccc3C#N)n2)C(C)(C)C1 (stereo not shown) [Compound 2659, N—[[6-(2-cyanoanilino)-2-pyridyl]sulfonyl]-2-(2,2,4-trimethylpyrrolidin-1-yl)pyridine-3-carboxamide]"
3,< 3000 nM,"Cc1ccc(F)cc1-c1ccc(C(=O)NS(=O)(=O)c2cccnc2N)c(N2C[C@@H](C)CC2(C)C)n1 [Compound 2660, N-[(2-amino-3-pyridyl)sulfonyl]-6-(5-fluoro-2-methyl-phenyl)-2-[(4S)-2,2,4-trimethylpyrrolidin-1-yl]pyridine-3-carboxamide]"
4,3000 to 10000 nM,"COc1ccc(CNc2cccc(S(=O)(=O)NC(=O)c3cccnc3N3CC(C)CC3(C)C)n2)cc1OC (stereo not shown) [Compound 2662, N—[[6-[(3,4-dimethoxyphenyl)methylamino]-2-pyridyl]sulfonyl]-2-(2,2,4-trimethylpyrrolidin-1-yl)pyridine-3-carboxamide]"
5,< 3000 nM,"CC1CN(c2ncccc2C(=O)NS(=O)(=O)c2cccc(Oc3cc(Cl)cc(Cl)c3)n2)C(C)(C)C1 (stereo not shown) [Compound 2663, N—[[6-(3,5-dichlorophenoxy)-2-pyridyl]sulfonyl]-2-(2,2,4-trimethylpyrrolidin-1-yl)pyridine-3-carboxamide]"
6,< 3000 nM,"COc1ccc(-c2ccc(C(=O)NS(=O)(=O)c3cccnc3N)c(N3C[C@@H](C)CC3(C)C)n2)cc1OC [Compound 2664, N-[(2-amino-3-pyridyl)sulfonyl]-6-(3,4-dimethoxyphenyl)-2-[(4S)-2,2,4-trimethylpyrrolidin-1-yl]pyridine-3-carboxamide]"
7,< 3000 nM,"CCOc1cc(-c2ccc(C(=O)NS(=O)(=O)c3cccnc3N)c(N3C[C@@H](C)CC3(C)C)n2)ccc1F [Compound 2665, N-[(2-amino-3-pyridyl)sulfonyl]-6-(3-ethoxy-4-fluoro-phenyl)-2-[(4S)-2,2,4-trimethylpyrrolidin-1-yl]pyridine-3-carboxamide]"
